The results in this text go back to publication PMC3723855, “R31C GNRH1 Mutation and Congenital Hypogonadotropic Hypogonadism” (PLoS ONE, 2013).

This experiment deals with LbetaT2 cells. In words: Intracellular calcium mobilization (Fura2) in LbetaT2 cells. The experiment is classed as cell-based, murine. The following applies: pre-treatment with 100 nM cetrorelix; data not shown. As for the experimental part:
Figure 5 Effect of treatments on intracellular calcium mobilization. Cells were loaded with Fura 2-AM. At the time of the experiment 100 µM EGTA was added 30 sec before addition of 300 µM of CaCl2 (Ca^2+) to the medium as indicated, and cells were then stimulated with 10 nM of wild type (WT), mutant (R31C) or equimolar combination (10 nM WT +10 nM R31C) or vehicle for 3 min. In the upper panel, representative curves of single cell recording. Each experiment mean was analysed using One-way ANOVA followed by Tukey's Multiple comparison test. In the lower panels, histograms show the means ± SEM (n = 4) of the response to ligands as calcium peak and as area under the curve (AUC). […] Representative of at least three independent experiments, *p<0.05.
LbetaT2 cells were kept in serum free medium overnight and then loaded with 2 µM Fura2-AM for 45 min at 37°C. The experiment was conducted in HEPES buffer (in mM; 116 NaCl, 5.6 KCl, 1.2 MgCl2, 5 NaHCO3, 1 NaH2PO4, 20 HEPES ph 7.4) in presence of extracellular Ca^2+ (EGTA 100 µM + CaCl2 300 µM). Single images of fluorescent emission at 510 nm under excitation at 340 and 380 nm were taken every 5 Sec. Changes in [Ca^2+]i in response to GnRHs were monitored using the Fura2 340/380 fluorescence ratio. Basal ratio was arbitrarily considered as 1. Ca^2+ responses over basal level were given either as maximal rise of [Ca^2+]i or as area under the curve (for 2 min after agonist addition).
On the technique in general: Calcium flux is commonly read through the fluorescence of an indicator in the cells.

In the case of cetrorelix [reference compound], the “calcium responses to WT and R31C after antagonist pre-treatment” value is given as “abolished responses to both ligands”.
